Source: US5498632A, “Esters of acyl carnitines with long-chain aliphatic alcohols and pharmaceutical compositions containing same having antibacterial activity” (Sigma-Tau Industrie Farmaceutiche Riunite S.p.A., priority 1992, dated 1996)

What was measured:
Type in all cases: cell-based
[1] = test system: Bacillus pumilus (CN 607); assay: MIC in broth, Gram+ strains; conditions: B. pumilus (CN 607), Mueller-Hinton broth, 37° C., 18 hours, read-out: Minimal Inhibitory Concentration (MIC)
Procedure: (§1) Evaluation of the Minimal Inhibitory Concentration (MIC) in broth of 15 new substances for Gram+ bacterial strains.
(§2) The following strains were used: Staphylococcus aureus (4); Streptococcus faecalis (8); Bacillus pumilus (1); Bacillus subtilis (1).
(§3) MICs were determined by a standard microdilution test, using serial two-fold dilutions of the substances in Mueller-Hinton broth.
(§4) The inoculum was prepared from an overnight culture in Mueller-Hinton broth matching the 0.5 Mc Farland (turbidity) standard (BRAY W. E., Clinical Laboratory Methods, 5th Ed. C. V. MOSBY, St. Louis, Mo. 1957), and was adjusted to a final concentration of 5.0×10^4 colony-forming units/ml.
(§5) Equal volumes (0.1 ml) of both bacterial suspensions and substance solutions were distributed in microtiter plates (Falcon, 96 wells, round bottom), and then placed in a humidified incubator (37° C.) for 18 hours.
(§6) The results, in terms of MIC values, resistant strain number and mean MIC values versus susceptible strains, are illustrated in Tables 1-6.

[2] = test system: Bacillus subtilis (ATCC 6051); assay: MIC in broth, Gram+ strains; conditions: ATCC6051, B. subtilis (ATCC 6051), Mueller-Hinton broth, 37° C., 18 hours, read-out: Minimal Inhibitory Concentration (MIC)
Procedure: as §1, §2, §3, §4, §5, §6

[3] = test system: Staphylococcus aureus (303); assay: MIC in broth, Gram+ strains; conditions: S. aureus (303), Mueller-Hinton broth, 37° C., 18 hours, read-out: Minimal Inhibitory Concentration (MIC)
Procedure: as §1, §2, §3, §4, §5, §6

[4] = test system: Staphylococcus aureus (306 MR); assay: MIC in broth, Gram+ strains; conditions: S. aureus (306 MR), Mueller-Hinton broth, 37° C., 18 hours, read-out: Minimal Inhibitory Concentration (MIC)
Procedure: as §1, §2, §3, §4, §5, §6

[5] = test system: Staphylococcus aureus (ATCC 14154); assay: MIC in broth, Gram+ strains; conditions: ATCC14154, S. aureus (ATCC 14154), Mueller-Hinton broth, 37° C., 18 hours, read-out: Minimal Inhibitory Concentration (MIC)
Procedure: as §1, §2, §3, §4, §5, §6

[6] = test system: Staphylococcus aureus (LC1); assay: MIC in broth, Gram+ strains; conditions: S. aureus (LC1), Mueller-Hinton broth, 37° C., 18 hours, read-out: Minimal Inhibitory Concentration (MIC)
Procedure: as §1, §2, §3, §4, §5, §6

[7] = test system: Streptococcus faecalis (501); assay: MIC in broth, Gram+ strains; conditions: Enterococcus faecalis; S. faecalis (501), Mueller-Hinton broth, 37° C., 18 hours; read-out: Minimal Inhibitory Concentration (MIC)
Procedure: as §1, §2, §3, §4, §5, §6

[8] = test system: Streptococcus faecalis (505); assay: MIC in broth, Gram+ strains; conditions: Enterococcus faecalis; S. faecalis (505), Mueller-Hinton broth, 37° C., 18 hours; read-out: Minimal Inhibitory Concentration (MIC)
Procedure: as §1, §2, §3, §4, §5, §6

[9] = test system: Streptococcus faecalis (509); assay: MIC in broth, Gram+ strains; conditions: Enterococcus faecalis; S. faecalis (509), Mueller-Hinton broth, 37° C., 18 hours; read-out: Minimal Inhibitory Concentration (MIC)
Procedure: as §1, §2, §3, §4, §5, §6

[10] = test system: Streptococcus faecalis (516); assay: MIC in broth, Gram+ strains; conditions: Enterococcus faecalis; S. faecalis (516), Mueller-Hinton broth, 37° C., 18 hours; read-out: Minimal Inhibitory Concentration (MIC)
Procedure: as §1, §2, §3, §4, §5, §6

[11] = test system: Streptococcus faecalis (518); assay: MIC in broth, Gram+ strains; conditions: Enterococcus faecalis; S. faecalis (518), Mueller-Hinton broth, 37° C., 18 hours; read-out: Minimal Inhibitory Concentration (MIC)
Procedure: as §1, §2, §3, §4, §5, §6

[12] = test system: Streptococcus faecalis (519); assay: MIC in broth, Gram+ strains; conditions: Enterococcus faecalis; S. faecalis (519), Mueller-Hinton broth, 37° C., 18 hours; read-out: Minimal Inhibitory Concentration (MIC)
Procedure: as §1, §2, §3, §4, §5, §6

[13] = test system: Streptococcus faecalis (R 2); assay: MIC in broth, Gram+ strains; conditions: Enterococcus faecalis; S. faecalis (R 2), Mueller-Hinton broth, 37° C., 18 hours; read-out: Minimal Inhibitory Concentration (MIC)
Procedure: as §1, §2, §3, §4, §5, §6

[14] = test system: Streptococcus faecalis (UM); assay: MIC in broth, Gram+ strains; conditions: Enterococcus faecalis; S. faecalis (UM), Mueller-Hinton broth, 37° C., 18 hours; read-out: Minimal Inhibitory Concentration (MIC)
Procedure: as §1, §2, §3, §4, §5, §6

Gram+ bacterial strains = assay: Mean MIC in broth and resistant strain number, Gram+ strains; conditions: 18 h, versus susceptible strains
Procedure: as §1, §2, §3, §4, §5, §6

Escherichia coli (92 F) = assay: MIC in broth, Gram- strains; conditions: 18 h, E. coli (92 F), read-out: Minimal Inhibitory Concentration (MIC)
Procedure: as §3, §4, §5
(§7) Evaluation of the Minimal Inhibitory Concentration (MIC) in broth of 16 new substances for Gram- bacterial strains.
(§8) The following strains were used: Enterobacter (1), Escherichia (3), Klebsiella (3), Proteus (3); Pseudomonas (2); Salmonella (2), Serratia (1).

Escherichia coli (R 57B) = assay: MIC in broth, Gram- strains; conditions: 18 h, E. coli (R 57B), read-out: Minimal Inhibitory Concentration (MIC)
Procedure: as §3, §4, §5, §7, §8

[15] = test system: Klebsiella aerogenes (SH 1082); assay: MIC in broth, Gram- strains; conditions: 18 h, read-out: Minimal Inhibitory Concentration (MIC)
Procedure: as §3, §4, §5, §7, §8

Klebsiella oxytoca (552) = assay: MIC in broth, Gram- strains; conditions: 18 h, read-out: Minimal Inhibitory Concentration (MIC)
Procedure: as §3, §4, §5, §7, §8

[16] = test system: Klebsiella pneumoniae (7823); assay: MIC in broth, Gram- strains; conditions: 18 h, read-out: Minimal Inhibitory Concentration (MIC)
Procedure: as §3, §4, §5, §7, §8

Proteus mirabilis (32) = assay: MIC in broth, Gram- strains; conditions: 18 h, read-out: Minimal Inhibitory Concentration (MIC)
Procedure: as §3, §4, §5, §7, §8

Proteus morganii (D.S.) = assay: MIC in broth, Gram- strains; conditions: Morganella morganii, 18 h, read-out: Minimal Inhibitory Concentration (MIC)
Procedure: as §3, §4, §5, §7, §8

Proteus vulgaris (UM) = assay: MIC in broth, Gram- strains; conditions: 18 h, read-out: Minimal Inhibitory Concentration (MIC)
Procedure: as §3, §4, §5, §7, §8

[17] = test system: Pseudomonas aeruginosa (10 E); assay: MIC in broth, Gram- strains; conditions: 18 h, read-out: Minimal Inhibitory Concentration (MIC)
Procedure: as §3, §4, §5, §7, §8

[18] = test system: Pseudomonas aeruginosa (3 E); assay: MIC in broth, Gram- strains; conditions: 18 h, read-out: Minimal Inhibitory Concentration (MIC)
Procedure: as §3, §4, §5, §7, §8

Salmonella typhi (J) = assay: MIC in broth, Gram- strains; conditions: Salmonella enterica, 18 h, read-out: Minimal Inhibitory Concentration (MIC)
Procedure: as §3, §4, §5, §7, §8

[19] = test system: Salmonella typhimurium (D.S.); assay: MIC in broth, Gram- strains; conditions: Salmonella enterica, 18 h, read-out: Minimal Inhibitory Concentration (MIC)
Procedure: as §3, §4, §5, §7, §8

Gram- bacterial strains = assay: Mean MIC in broth and resistant strain number, Gram- strains; conditions: 18 h, read-out: Mean MIC values
Procedure: as §3, §4, §5, §7, §8

[20] = test system: Helicobacter pylori NCTC 11637; assay: In vitro synergistic effect of ST 722 and Bismuth Subcitrate
Procedure: CBS from the commercially available product De-Nol® (Gist-Brocades, Netherland), i.e. ammonium and potassium double salt of colloidal bismuth citrate hydroxide, was utilized by preparing a suspension of 10 mg/ml CBS in 1N NaOH. After diluting 1:10 in Mueller-Hinton broth, 8 serial two-fold dlitutions in the same medium were made. The compound ST 722 was dissolved in Mueller-Hinton broth at a starting concentration of 100 mcg/ml, then 7 serial two-fold dilutions were carried out.
The "in vitro" anti-Helicobacter activity of both CBS and ST 722, alone and in association, was tested by utilizing the strain H. pylori NCTC 11637.
A 24-hour culture of Helicobacter in Columbia agar medium supplemented with Vitox (Oxoid) and 7% defribinated horse blood is washed with Mueller-Hinton broth.
Following densitometric evaluation (reading at 600 nm), the bacterial suspension was adjusted to a concentration of 1.0×10^9 cells/ml and 0.2-ml volumes were distributed into each well of a 96-well U-bottomed microtiter plate.
A 1-μl volume of this bacterial suspension was then distributed, by means of a Steers-type replicator apparatus, into the wells of microtiter plates containing the substances, either alone or in association. The final bacterial inoculum contained approximately 1.0×10^6 bacterial cells.
The procedure described by Garrod et al. (GARROD, L. P. and WATERWORTH, P. M., 1962. Methods of testing combined antibiotic bactericidal action and the significance of the results. J. Clin. Pathol. 15, 328-338) was utilized.
Briefly, 250-μl volumes of each test substance, either alone or admixed in all the possible combinations, were additioned to 4.5 ml of Mueller-Hinton agar containing 5% defribinated horse serum. Volumes of 0.2 ml/well of the resulting solution were distributed into the wells of a microtiter plate, then seeded with 1 μl/well of a standardized bacterial suspension, and finally incubated for 48 hours at 37° C. in a 10% CO2 atmosphere.
In order to evaluate the results obtained with combinations of antibiotics it was utilized the method (KROGSTAD, D. J. and MOELLERING, R. C., 1983. Antimicrobial combinations. In LORIAN, V., Antibiotics in Laboratory Medicine, 15, 537-549) based on the calculation of the Fractional Inhibitory Concentration Index (FIC index).
FIC index is calculated as follows: [formula] Where (A) is the MIC of substance A in the association and (MICA) is the […] of the organism to substance A alone. FICA is the fractional inhibitory concentration of substance A. (B), (MICB) and FICB are defined in the same fashion for substance B.
Based on these criteria, the effect of a combination of 2 substances is referred to as 'synergistic" when the FIC index is ≤0.5, "additive" with a FIC index=1, and "antagonist" when FIC index is >1.

Molecule: CCCCCCCCCCCOC(=O)CC(C[N+](C)(C)C)OC(=O)CCCCCC (stereo not drawn) [ST 1036]
- MIC [1]: 1.56 µg/mL
- MIC [2]: 3.12 µg/mL
- MIC [3]: 3.12 µg/mL
- MIC [4]: 3.12 µg/mL
- MIC [5]: 3.12 µg/mL
- MIC [6]: 1.56 µg/mL
- MIC [7]: 1.56 µg/mL
- MIC [8]: 1.56 µg/mL
- MIC [9]: 1.56 µg/mL
- MIC [10]: 3.12 µg/mL
- MIC [11]: 3.12 µg/mL
- MIC [12]: 3.12 µg/mL
- MIC [13]: 3.12 µg/mL
- MIC [14]: 1.56 µg/mL
- MIC (Gram+ bacterial strains): 2.45 µg/mL
- MIC (Escherichia coli (92 F)): 25 µg/mL
- MIC (Escherichia coli (R 57B)): > 100 µg/mL
- MIC [15]: 100 µg/mL
- MIC (Klebsiella oxytoca (552)): 50 µg/mL
- MIC [16]: 12.5 µg/mL
- MIC (Proteus mirabilis (32)): > 100 µg/mL
- MIC (Proteus morganii (D.S.)): > 100 µg/mL
- MIC (Proteus vulgaris (UM)): > 100 µg/mL
- MIC [17]: > 100 µg/mL
- MIC [18]: 100 µg/mL
- MIC (Salmonella typhi (J)): 25 µg/mL
- MIC [19]: > 100 µg/mL
- MIC (Gram- bacterial strains): 60.7 µg/mL

Molecule: Colloidal Bismuth Subcitrate [CBS, reference compound]
- FIC (fractional inhibitory concentration) ([20]; ST 722 with CBS): 0.50
- MIC ([20]; substance alone, H. pylori NCTC 11637, 48 hours): 6.25 µg/mL
